Source: patent US6624196B2, “Benzene butyric acids and their derivatives as inhibitors of matrix metalloproteinases” (Warner-Lambert Company, priority 1999, dated 2003)

Experiments:
[1] = target: T1, MMP-2CD (gelatinase A catalytic domain) (Homo sapiens, UniProt P08253, DEL220-393); experiment: Thiopeptolide substrate assay, gelatinase A catalytic domain; assay type: biochemical; conditions: for IC50: thiopeptolide substrate, catalytic domain; for inhibition at 10 µM: read-out: % inhibition of the enzyme MMP-2CD
T1 construct: Experiments were carried out with the catalytic domains of the proteinases
Protocol: (§1) Experiments were carried out with the catalytic domains of the proteinases. […] IC50 values were determined using a thiopeptolide substrate, Ac-Pro-Leu-Gly-thioester-Leu-Leu-Gly-OEt (ye Q. -Z., Johnson L. L., Hupe D. J., and Baragi V., “Purification and Characterization of the Human Stromelysin Catalytic Domain Expressed in Escherichia coli,” Biochemistry, 1992;31:11231-11235; ye Q. -Z., Johnson L. L., yu A. E., and Hupe D., “Reconstructed 19 kDa catalytic domain of gelatinase A is an active proteinase,” Biochemistry, 1995;34:4702-4708.) MMP-13CD was expressed from a synthetic gene and purified from Escherichia coli cell culture according to a previously described method (ye Q. -Z., Johnson L. L., and Baragi V., “Gene synthesis and expression in E. coli for PUMP, a human matrix metalloproteinase,” Biochemical and Biophysical Research Communications, 1992;186:143-149.)

[2] = target: T2, MMP-3CD (stromelysin-1 catalytic domain) (Homo sapiens, UniProt P08254); experiment: Thiopeptolide substrate assay, stromelysin-1 catalytic domain; assay type: biochemical; conditions: for IC50: thiopeptolide substrate, catalytic domain; for inhibition at 10 µM: read-out: % inhibition of the enzyme MMP-3CD
T2 construct: Experiments were carried out with the catalytic domains of the proteinases; made in house; host or cells: Escherichia coli
Protocol: as §1

[3] = target: T3, MMP-13CD (collagenase-3 catalytic domain) (Homo sapiens, UniProt P45452); experiment: Thiopeptolide substrate assay, collagenase-3 catalytic domain; assay type: biochemical; conditions: for IC50: thiopeptolide substrate, catalytic domain; for inhibition at 10 µM: read-out: % inhibition of the enzyme MMP-13CD
T3 construct: Experiments were carried out with the catalytic domains of the proteinases; made in house; host or cells: Escherichia coli
Protocol: as §1

[4] = 10 μM concentration of inhibitor (footnote a, Examples 8 through 25)

T2 sequence (P08254 100-272 limits assumed): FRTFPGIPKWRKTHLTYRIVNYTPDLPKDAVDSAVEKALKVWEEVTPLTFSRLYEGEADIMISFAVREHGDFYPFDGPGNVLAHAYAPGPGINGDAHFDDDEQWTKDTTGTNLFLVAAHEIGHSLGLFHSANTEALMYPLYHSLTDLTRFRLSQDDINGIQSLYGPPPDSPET
T1 sequence (P08253 with tags, fused parts or gaps DEL220-393): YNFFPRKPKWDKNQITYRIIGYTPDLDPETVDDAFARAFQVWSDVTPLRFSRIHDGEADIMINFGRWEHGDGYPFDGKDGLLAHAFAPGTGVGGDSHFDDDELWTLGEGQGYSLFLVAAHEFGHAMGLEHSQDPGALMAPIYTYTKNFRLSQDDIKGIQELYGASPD

Row | Compound | IC50 [1] | IC50 [2] | inhibition at 10 µM [1, 4] | inhibition at 10 µM [2, 4] | inhibition at 10 µM [3, 4] | further results
1 | 4-Hydroxyimino-4-[(4-methyl-benzoyl)amino-phenyl]-butyric acid [Example 2] | 0.41 µM | 1.1 µM |  |  |  | IC50 [3]: 3.8 µM
2 | 4-[4-(Benzoylamino)-phenyl]-4-oxo-butyric acid [Example 28] | 0.11 µM | 0.55 µM |  |  |  | IC50 [3]: 17 µM
3 | 4-[4-(Carboxy-acetylamino)-phenyl]-4-oxo-butyric acid [Example 36] | 41 µM | 17 µM |  |  |  | 
4 | CCCCC(=O)Nc1ccc(C(=O)CCC(=O)O)cc1 [Example 3, 4—oxo-4-(4-pentanoylamino-phenyl)-butyric acid] | 9.5 µM | 8.15 µM |  |  |  | melting point: 153 to 155 °C
5 | O=C(O)CCC(=O)c1ccc(NC(=O)c2ccccc2F)cc1 [Example 5, 4-[4-(2-Fluoro-benzoylamino)-phenyl]-4-oxo-butyric acid] | 1.9 µM | 9.8 µM |  |  |  | melting point: 191 to 193 °C
6 | O=C(O)CCC(=O)c1ccc(NC(=O)c2cccnc2)cc1 [Example 8, 4-[4-(Pyridin-3-yl-carbonylamino)-phenyl]-4-oxo-butyric acid] |  |  | 15% | 3% | 0% | 
7 | CCCCCCCC(=O)Nc1ccc(C(=O)CCC(=O)O)cc1 [Example 10, 4-[4-(Octanoylamino)-phenyl]-4-oxo-butyric acid] |  |  | 79% | 66% | 8% | 
8 | CCC(=O)Nc1ccc(C(=O)CCC(=O)O)cc1 [Example 11, 4—oxo-4-[4-(propionylamino)-phenyl]-butyric acid] |  |  | 46% | 21% | 9% | 
9 | O=C(O)CCC(=O)c1ccc(NC(=O)CCCc2ccc(Br)cc2)cc1 [Example 14, 4-{4-[4-(4-Bromo-phenyl)-butyrylamino]-phenyl}-4-oxo-butyric acid] |  |  | 26% | 48% | 7% | 
10 | CCCCCCC(=O)Nc1ccc(C(=O)CCC(=O)O)cc1 [Example 15, 4-[4-(Heptanoylamino)-phenyl]-4-oxo-butyric acid] |  |  | 83% | 70% | 11% | 
11 | CCCCOc1ccc(C(=O)Nc2ccc(C(=O)CCC(=O)O)cc2)cc1 [Example 17, 4-[4-(4-Butoxy-benzoylamino)-phenyl]-4-oxo-butyric acid] |  |  | 97% | 78% | 65% | 
12 | O=C(O)CCC(=O)c1ccc(NC(=O)c2ccc(Cl)c([N+](=O)[O-])c2)cc1 [Example 18, 4-[4-(4—Chloro-3-nitro-benzoylamino)-phenyl]-4-oxo-butyric acid] |  |  | 82% | 38% | 16% | 
13 | O=C(O)CCC(=O)c1ccc(NC(=O)c2ccc(Br)cc2)cc1 [Example 20, 4-[4-(4-Bromo-benzoylamino)-phenyl]-4-oxo-butyric acid] |  |  | 93% | 81% | 30% | 
14 | CCCC(=O)Nc1ccc(C(=O)CCC(=O)O)cc1 [Example 22, 4-[4-(Butyrylamino)-phenyl]-4-oxo-butyric acid] |  |  | 62% | 35% | 0% | 
15 | CCCCCCCCCC(=O)Nc1ccc(C(=O)CCC(=O)O)cc1 [Example 23] |  |  |  |  |  | % inhibition of the enzyme MMP-2CD [1, 4]: 54%; % inhibition of the enzyme MMP-3CD [2, 4]: 39%; % inhibition of the enzyme MMP-13CD [3, 4]: 0%
16 | COc1cc(OC)cc(C(=O)Nc2ccc(C(=O)CCC(=O)O)cc2)c1 [Example 24, 4-[4-(3,5-Dimethoxy-benzoylamino)-phenyl]-4-oxo-butyric acid] |  |  | 15% | 4% | 0% | 
17 | COc1ccccc1C(=O)Nc1ccc(C(=O)CCC(=O)O)cc1 [Example 25, 4-[4-(2-Methoxy-benzoylamino)-phenyl]-4-oxo-butyric acid] |  |  | 18% | 13% | 0% | 
18 | COc1ccc(C(=O)Nc2ccc(C(=O)CCC(=O)O)cc2)cc1 [Example 27, 4-[4-(4-Methoxy-benzoylamino)-phenyl]-4-oxo-butyric acid] | 0.07 µM | 0.34 µM |  |  |  | IC50 [3]: 9.8 µM
19 | O=C(O)CCC(=O)c1ccc(NC(=O)c2cccs2)cc1 [Example 31, 4—oxo-4-[4-(thiophen-2-yl-carbonylamino)-phenyl]-butyric acid] | 0.13 µM | 1.7 µM |  |  |  | IC50 [3]: 19 µM
20 | O=C(O)CCC(=O)c1ccc(NC(=O)c2ccco2)cc1 [Example 32, 4-[4-(2-Furoylamino)-phenyl]-4-oxo-butyric acid] | 0.91 µM | 19 µM |  |  |  | 
21 | O=C(O)CCC(=O)c1ccc(NC(=O)Cc2ccccc2)cc1 [Example 33, 4—oxo-4-[4-(phenyl-acetylamino)-phenyl]-butyric acid] | 52 µM | 24 µM |  |  |  | 
22 | O=C(O)CCC(=O)c1ccc(NC(=O)CCc2ccccc2)cc1 [Example 34, 4—oxo-4-[4-(3-phenyl-propionylamino)-phenyl]-butyric acid] |  | 6.6 µM |  |  |  | 
23 | O=C(O)CCC(=O)Nc1ccc(C(=O)CCC(=O)O)cc1 [Example 35, 4-[4-(3—Carboxy-propionylamino)-phenyl]-4-oxo-butyric acid] | 38 µM | 13 µM |  |  |  | 

Continued, in another order:

Row | IC50 [1] | IC50 [2] | inhibition at 10 µM [1, 4] | inhibition at 10 µM [2, 4] | inhibition at 10 µM [3, 4] | Compound | further results
24 | 0.22 µM | 1.55 µM |  |  |  | Cc1ccc(C(=O)Nc2ccc(C(=O)CCC(=O)O)cc2)cc1 [Example 1, 4-[4-(4-Methyl-benzoylamino)-phenyl]-4-oxo-butyric acid] | IC50 [3]: 5.8 µM
25 | 1.9 µM | 6.2 µM |  |  |  | O=C(O)CCC(=O)c1ccc(NC(=O)c2cccc(F)c2)cc1 [Example 4, 4-[4-(3-Fluoro-benzoylamino)-phenyl]-4-oxo-butyric acid] | melting point: 239 to 241 °C
26 | 1.7 µM | 2.8 µM |  |  |  | O=C(O)CCC(=O)c1ccc(NC(=O)c2ccc(F)cc2)cc1 [Example 6, 4-[4-(4-Fluoro-benzoylamino)-phenyl]-4-oxo-butyric acid] | IC50 [3]: 85 µM; melting point: 253 to 255 °C
27 |  | 20 µM |  |  |  | O=C(O)CCC(=O)c1ccc(NC(=O)C2CCCCC2)cc1 [Example 7, 4-[4-(Cyclohexane-carbonyllamino)-phenyl]-4-oxo-butyric acid] | melting point: 195 to 198 °C
28 |  |  | 85% | 75% | 3% | CCCCCCCCC(=O)Nc1ccc(C(=O)CCC(=O)O)cc1 [Example 9, 4-[4-(Nonanoylamino)-phenyl]-4-oxo-butyric acid] | 
29 |  |  | 75% | 31% | 11% | COc1cccc(C(=O)Nc2ccc(C(=O)CCC(=O)O)cc2)c1 [Example 12, 4-[4-(3-Methoxy-benzoylamino)-phenyl]-4-oxo-butyric acid] | 
30 |  |  | 26% | 11% | 0% | O=C(O)CCC(=O)c1ccc(NC(=O)c2ccc(Cl)cc2Cl)cc1 [Example 13, 4-[4-(2,4-Dichloro-benzoylamino)-phenyl]-4-oxo-butyric acid] | 
31 |  |  | 97% | 85% | 60% | CCc1ccc(C(=O)Nc2ccc(C(=O)CCC(=O)O)cc2)cc1 [Example 16, 4-[4-(4-Ethyl-benzoylamino)-phenyl]-4-oxo-butyric acid] | 
32 |  |  | 86% | 72% | 9% | O=C(O)CCC(=O)c1ccc(NC(=O)C=Cc2ccccc2)cc1 [Example 19, 4-[4-(Cinnamoylamino)-phenyl]-4-oxo-butyric acid] | 
33 |  |  | 78% | 23% | 8% | O=C(O)CCC(=O)c1ccc(NC(=O)c2cccc([N+](=O)[O-])c2)cc1 [Example 21, 4-[4-(3-Nitro-benzoylamino)-phenyl]-4-oxo-butyric acid] | 
34 | 0.12 µM | 0.82 µM |  |  |  | O=C(O)CCC(=O)c1ccc(NC(=O)c2ccc(Cl)cc2)cc1 [Example 26, 4-[4-(4—Chloro-benzoylamino)-phenl]-4-oxo-butyric acid] | IC50 [3]: 24 µM
35 | 0.46 µM | 2.4 µM |  |  |  | O=C(O)CCC(=O)c1ccc(NC(=O)c2ccc([N+](=O)[O-])cc2)cc1 [Example 29, 4-[4-(4-Nitro-benzoylamino)-phenyl]-4-oxo-butyric acid] | IC50 [3]: 40 µM
36 | 0.93 µM | 5 µM |  |  |  | O=C(O)CCC(=O)c1ccc(NC(=O)c2ccc(F)cc2F)cc1 [Example 30, 4-[4-(2,4-Difluoro-benzoylamino)-phenyl]-4-oxo-butyric acid] | 
